# Test results reported in patent US12252524B2, “GIP/GLP1 co-agonist compounds” (Eli Lilly and Company, priority 2018, dated 2025).
# Numbered stars: 1 amine (or outer) side, 2 acyl side, 3 side chain; on linkers, the order of the positions; unused ones are H or OH. Square brackets hold non-standard residues; d marks the D form. Side chains are listed from the residue outwards. Peptide text beside a SMILES is read from it. * marks the point of attachment. C20 diacid = O=C(O)CCCCCCCCCCCCCCCCCCC(=O)*; γGlu = O=C(O)[C@H](CCC(=O)[*:2])N[*:1]; αMeF = C[C@](N)(Cc1ccccc1)C(=O)O; αMeL = CC(C)C[C@](C)(N)C(=O)O; AEEA = NCCOCCOCC(=O)O; Aib = CC(C)(N)C(=O)O
# How the values were obtained:
# [1] = molecular target: T1, gastric inhibitory peptide receptor (GIPR) (Homo sapiens, UniProt P48546); experiment: cAMP pharmacological functional assay in presence of casein, hGIPR; format: cell-based; settings: HEK293 cells expressing hGIPR, 0.1% Casein, geometric mean; read-out: hGIPR cAMP Rel EC50 nM (SEM, n)
# T1 sequence (P48546 22-466): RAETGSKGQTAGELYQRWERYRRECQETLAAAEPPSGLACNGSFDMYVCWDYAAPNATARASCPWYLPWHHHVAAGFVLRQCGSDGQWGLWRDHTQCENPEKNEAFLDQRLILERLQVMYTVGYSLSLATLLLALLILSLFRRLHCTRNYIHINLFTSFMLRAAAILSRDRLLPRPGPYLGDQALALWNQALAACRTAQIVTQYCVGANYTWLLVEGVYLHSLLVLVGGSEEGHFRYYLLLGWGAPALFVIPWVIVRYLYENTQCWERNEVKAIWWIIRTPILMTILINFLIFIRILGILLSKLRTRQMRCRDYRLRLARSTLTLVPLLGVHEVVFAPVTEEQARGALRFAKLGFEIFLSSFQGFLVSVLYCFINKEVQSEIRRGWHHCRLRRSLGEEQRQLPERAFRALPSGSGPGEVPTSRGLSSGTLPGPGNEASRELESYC
# [2] = molecular target: T2, human GIP receptor (Homo sapiens, UniProt P48546); experiment: [125I]-GIP binding (SPA), human GIP receptor; settings: read-out: hGIPR Ki, nM (SEM, n)
# T2 construct: expressed in transfected cells; crude membranes
# T2 sequence (P48546 22-466): T1 sequence (P48546 22-466)
# [3] = molecular target: T3, human Gcg receptor (Homo sapiens, UniProt P47871); experiment: [125I]-Glucagon binding (SPA), human Gcg receptor; settings: read-out: hGLcgR Ki, nM (SEM, n)
# T3 construct: expressed in transfected cells; crude membranes
# T3 sequence (P47871 26-477): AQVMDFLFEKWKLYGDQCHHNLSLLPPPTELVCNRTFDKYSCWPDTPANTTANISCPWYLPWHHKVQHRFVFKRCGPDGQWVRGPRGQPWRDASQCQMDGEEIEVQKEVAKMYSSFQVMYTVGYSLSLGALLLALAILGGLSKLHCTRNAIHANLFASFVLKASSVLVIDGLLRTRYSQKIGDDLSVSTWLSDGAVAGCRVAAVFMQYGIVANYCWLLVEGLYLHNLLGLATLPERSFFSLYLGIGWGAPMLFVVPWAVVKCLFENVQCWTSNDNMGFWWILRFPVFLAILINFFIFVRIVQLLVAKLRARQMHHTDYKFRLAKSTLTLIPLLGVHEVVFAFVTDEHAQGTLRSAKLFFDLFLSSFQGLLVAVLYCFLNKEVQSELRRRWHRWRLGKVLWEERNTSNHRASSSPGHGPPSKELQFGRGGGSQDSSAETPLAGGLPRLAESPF
# In short: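 Cell pellets were lysed in hypotonic Tris buffer, pH 7.5, homogenized, and spun at low then high speed to give crude membranes. Ki was derived from the fitted IC50.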
# [4] = molecular target: human GLP-1R (Homo sapiens, UniProt P43220); experiment: [125I]-GLP-1 binding (SPA), human GLP-1 receptor; design: expressed in transfected cells; crude membranes; settings: read-out: hGLP1R Ki, (nM) (SEM, n)
# Chain of human GLP-1R (P43220 24-463): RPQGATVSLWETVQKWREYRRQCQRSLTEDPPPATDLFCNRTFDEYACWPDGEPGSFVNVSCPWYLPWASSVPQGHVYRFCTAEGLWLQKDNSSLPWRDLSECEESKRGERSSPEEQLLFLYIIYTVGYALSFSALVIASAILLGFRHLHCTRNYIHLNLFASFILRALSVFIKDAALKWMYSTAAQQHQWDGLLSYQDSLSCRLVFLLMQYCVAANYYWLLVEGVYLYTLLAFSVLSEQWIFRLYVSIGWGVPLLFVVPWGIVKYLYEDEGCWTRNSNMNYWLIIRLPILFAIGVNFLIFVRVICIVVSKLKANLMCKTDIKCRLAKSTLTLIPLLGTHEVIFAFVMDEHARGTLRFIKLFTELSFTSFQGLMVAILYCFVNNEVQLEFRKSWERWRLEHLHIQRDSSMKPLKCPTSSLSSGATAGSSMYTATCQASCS
# In short: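 Assay buffer: HEPES 25 mM, pH 7.4, CaCl2 2.5 mM, MgCl2 1 mM, with EDTA-free protease inhibitors. Receptor came from crude cell membranes prepared by homogenization and centrifugation at 4° C. IC50s came from four-parameter fits (maximum, minimum, IC50, Hill slope) and were expressed as Ki geometric means with SEM.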
# [5] = molecular target: human GLP-1 receptor (GLP-1R) (Homo sapiens, UniProt P43220); experiment: cAMP pharmacological functional assay in presence of casein, hGLP-1R; format: cell-based; settings: HEK293 cells expressing hGLP-1R, 0.1% Casein, geometric mean; read-out: hGLP1R cAMP Rel EC50 nM (SEM, n)
# Chain of human GLP-1 receptor (GLP-1R) (P43220 24-463): as above
SMILES,EC50 [1],Ki [2],Ki [3],Ki [4],EC50 [5]
CC[C@H](C)[C@H](NC(=O)[C@H](CC(C)C)NC(=O)[C@H](Cc1ccc(O)cc1)NC(=O)[C@H](CCC(=O)O)NC(=O)[C@@H](NC(=O)[C@H](Cc1ccccc1)NC(=O)[C@H](C)NC(=O)C(C)(C)NC(=O)[C@H](CCC(N)=O)NC(=O)[C@H](C)NC(=O)[C@H](CCCCNC(=O)COCCOCCNC(=O)COCCOCCNC(=O)CC[C@H](NC(=O)CCCCCCCCCCCCCCCCCCC(=O)O)C(=O)O)NC(=O)[C@H](CCC(=O)O)NC(=O)[C@H](CC(=O)O)NC(=O)[C@H](CC(C)C)NC(=O)[C@](C)(CC(C)C)NC(=O)[C@@H](NC(=O)[C@H](CO)NC(=O)[C@H](Cc1ccc(O)cc1)NC(=O)[C@H](CC(=O)O)NC(=O)[C@H](CO)NC(=O)[C@@H](NC(=O)[C@](C)(Cc1ccccc1)NC(=O)[C@@H](NC(=O)CNC(=O)[C@H](CCC(=O)O)NC(=O)C(C)(C)NC(=O)[C@@H](N)Cc1ccc(O)cc1)[C@@H](C)O)[C@@H](C)O)[C@@H](C)CC)[C@@H](C)CC)C(=O)N[C@@H](CCC(=O)O)C(=O)NCC(=O)NCC(=O)N1CCC[C@H]1C(=O)N[C@@H](CO)C(=O)N[C@@H](CO)C(=O)NCC(=O)N[C@@H](C)C(=O)N1CCC[C@H]1C(=O)N1CCC[C@H]1C(=O)N1CCC[C@H]1C(=O)N[C@@H](CO)C(N)=O [Example 115] (H-Y[Aib]EGT[αMeF]TSDYSI[αMeL]LDEK([AEEA-AEEA-γGlu-C20 diacid])AQ[Aib]AFIEYLIEGGPSSGAPPPS-NH2),0.102 nM,0.0302 nM,9.89 nM,3.43 nM,0.088 nM
CC[C@H](C)[C@H](NC(=O)[C@H](CC(C)C)NC(=O)[C@H](Cc1ccc(O)cc1)NC(=O)[C@H](CCC(=O)O)NC(=O)[C@@H](NC(=O)[C@H](Cc1ccccc1)NC(=O)[C@H](CCC(=O)O)NC(=O)C(C)(C)NC(=O)[C@H](CCC(N)=O)NC(=O)[C@H](C)NC(=O)[C@H](CCCCNC(=O)COCCOCCNC(=O)COCCOCCNC(=O)CC[C@H](NC(=O)CCCCCCCCCCCCCCCCCCC(=O)O)C(=O)O)NC(=O)[C@H](CCC(=O)O)NC(=O)[C@H](CC(=O)O)NC(=O)[C@H](CC(C)C)NC(=O)[C@](C)(CC(C)C)NC(=O)[C@@H](NC(=O)[C@H](CO)NC(=O)[C@H](Cc1ccc(O)cc1)NC(=O)[C@H](CC(=O)O)NC(=O)[C@H](CO)NC(=O)[C@@H](NC(=O)[C@](C)(Cc1ccccc1)NC(=O)[C@@H](NC(=O)CNC(=O)[C@H](CCC(=O)O)NC(=O)C(C)(C)NC(=O)[C@@H](N)Cc1ccc(O)cc1)[C@@H](C)O)[C@@H](C)O)[C@@H](C)CC)[C@@H](C)CC)C(=O)N[C@@H](CCC(=O)O)C(=O)NCC(=O)NCC(=O)N1CCC[C@H]1C(=O)N[C@@H](CO)C(=O)N[C@@H](CO)C(=O)NCC(=O)N[C@@H](C)C(=O)N1CCC[C@H]1C(=O)N1CCC[C@H]1C(=O)N1CCC[C@H]1C(=O)N[C@@H](CO)C(N)=O [Example 116] (H-Y[Aib]EGT[αMeF]TSDYSI[αMeL]LDEK([AEEA-AEEA-γGlu-C20 diacid])AQ[Aib]EFIEYLIEGGPSSGAPPPS-NH2),0.0867 nM,0.0597 nM,137 nM,6.8 nM,0.0703 nM
